Source: patent publication US11617777B2, “Cytotoxic and anti-mitotic compounds, and methods of using the same” (ZYMEWORKS BC INC., priority 2013, dated 2023)
pEC50: −log10 of the molar value.

Key:
Jurkat cells [1] = assay: Cytotoxicity of compounds, CellTiter-Glo; assay type: cell-based, Human; conditions: Homo sapiens, Jurkat
In short: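 HCC1954 plated at 2500 cells/100 uL and attached overnight; Jurkat plated at 2500 cells/100 uL on the day of dosing. Cells exposed to 8-step 1:3 compound titrations for three nights at 37° C./5% CO2, in triplicate. CellTiter-Glo luminescence converted to % cytotoxicity versus medium-only control; EC50 by three-parameter nonlinear regression.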

NCI-N87 = assay: Cytotoxicity of compounds, CellTiter-Glo; assay type: cell-based; conditions: Homo sapiens, Table 5, read-out: Cytotoxicity (EC50) NCI-N87
Excerpt: (§1) FIG. 1 summarizes the data for compounds A, B, C, D, and E when tested using the Human mammary carcinoma cell line HCC1954 or Human T-cell leukemia cell line Jurkat. FIGS. 2-6 show the cytotoxicity data plots for individual compounds A-E. Tables 2-6 summarize the results of additional cytotoxicity assays.
(§2) Cell lines used: Human T-cell leukemia cell line Jurkat (ATCC: TIB-152); HCC1954 (ATCC: CRL. 2338); Human Pancreatic cells lines: AsPC-1 (ATCC: CRL-1682), BxPC-3 (ATCC: CRL.1687), HPAF-II (ATCC: CRL.1997), MiaPaCa2 (ATCC: CRL.1420), PANC-1 (ATCC: CRL.1469), Capan-1 (ATCC: HTB-79), Capan-2 (ATCC: HTB-80) and the Human gastric carcinoma cell line NCI-N87 (ATCC: CRL. 5822); AML-193 (ATCC: CRL.9589), CCRF-CEM (ATCC: CCL-119), DU145 (ATCC: HTB-81), PC-3 (ATCC: CRL.1435), A-431 (ATCC: CRL.1555), HT-29 (ATCC: HTB-38), A-172 (ATCC: CRL.1620), NCI-H358 (ATCC: CRL.5807), A549 (ATCC: CCL-185), Colo-205 (ATCC: CCL-222), MDA-MB-231 (ATCC: HTB-26), OVCAR-3 (ATCC: HTB-161), OV-90 (ATCC: CRL.11732), OE19 (Sigma: 96071721), RT 112/84 (Sigma: 85061106).
(§3) On the day prior to adding compounds, HCC1954 AsPC-1, BxPC-3, HPAF-II, MiaPaCa2, PANC-1, Capan-1, Capan-2 and NCI-N87 cells were added to opaque-walled 96-well tissue culture-treated microtiter plates using complete growth medium at a density of 2500 cells/100 microlitre (uL) of medium. These adherant cell lines cells were incubated for one night at 37° C./5% CO2 to allow the cells to attach to the microtiter plate surface. On the day that compounds were added, Jurkat cells are added to separate 96-well microtiter plates at 2500 cells/100 uL using the same growth medium as HCC1954. Compound were first serially diluted using dimethyl sulfoxide, and then the prepared dilutions are added to complete growth medium at five-times the final concentration—compounds were then titrated 1:3, eight steps. A control with no compound (growth medium alone) was included on each microtiter plate in sextuplicate. The prepared compounds titrations were added (twenty-five uL/well) in triplicate. The cells and compound titrations were incubated at 37° C./5% CO2 for three nights. After the incubation, cell viability is measured using CellTiter-Glo® reagent by adding thirty uL of prepared CellTiter-Glo® to each assay well. The assay is incubated for at least twenty minutes in the dark prior to measuring emitted luminescence using a microplate luminometer (500 ms integration time). The collected relative luminescence units (RLU) are converted to % cytotoxicity using the Growth medium alone control mentioned above (% Cytotoxicity=1−[Well RLU/average medium alone control RLU]).
(§4) GraphPad Prism was used for generation of EC50 values using three parameter non-linear regression curve fitting.

HCC1954 cells [2] = assay: Cytotoxicity of compounds, CellTiter-Glo; assay type: cell-based; conditions: Homo sapiens
Excerpt: as §2, §3, §4

Jurkat cells [3] = assay: Cytotoxicity assay of SMCC- and LC-SPDP-linked ADCs and free compounds; assay type: cell-based; conditions: Homo sapiens
Protocol: (§5) The purified ADCs were then analysed for: total protein content (BCA assay, Pierce microBCA protocol), relative affinity for antigen binding (equilibrium native binding), and selective cytotoxic killing of HER2-positive cells (HCC1954) compared HER2-negative cells (Jurkat).
(§6) On the day prior to adding test articles, HCC1954 cells were added to opaque-walled 96-well tissue culture-treated microtiter plates using complete growth medium at a density of 2500 cells/100 microlitre (uL) of medium. The HCC1954 cells were incubated for one night at 37° C./5% CO2 to allow the cells to attach to the microtiter plate surface. On the day that test articles were added, Jurkat cells are added to separate 96-well microtiter plates at 2500 cells/100 uL using the same growth medium as HCC1954. To compare the ADC killing to that obtained from the free-compounds, the n-acyl sulfonamide compounds were first serially diluted using dimethyl sulfoxide or DMA, and then the prepared dilutions are added to complete growth medium at five-times the final concentration—compounds were then titrated 1:3, eight steps. To test the ADCs, they were diluted directly in growth medium at five-times the final concentration—ADCs were then titrated 1:3, eight steps. A control with no test article present (growth medium alone) was included on each microtiter plate in sextuplicate. The prepared compound/ADC titrations were added (twenty-five uL/well) in triplicate to both the HCC1954 cells and Jurkat cells. The cells and titrations were incubated at 37° C./5% CO2 for three nights. After the incubation, cell viability was measured using CellTiter-Glo® reagent by adding thirty uL of prepared CellTiter-Glo® to each assay well. The assay was incubated for at least twenty minutes in the dark prior to measuring emitted luminescence using a microplate luminometer (500 ms integration time). The collected relative luminescence units (RLU) were converted to % cytotoxicity using the Growth medium alone control mentioned above (% Cytotoxicity=1−[Well RLU/average medium alone control RLU]).

HCC1954 cells [4] = assay: as above; assay type: cell-based; conditions: Homo sapiens
Protocol: as §5, §6

MiaPaCa2 = assay: Cytotoxicity of compounds, CellTiter-Glo; assay type: cell-based; conditions: Homo sapiens, MIA PaCa-2; Table 5; MinPaCa2; read-out: Cytotoxicity (EC50) MinPaCa2
Excerpt: as §1, §2, §3, §4

HPAF-II = assay: Cytotoxicity of compounds, CellTiter-Glo; assay type: cell-based; conditions: Homo sapiens, Table 5, read-out: Cytotoxicity (EC50) HPAF-II
Excerpt: as §1, §2, §3, §4

AsPC-1 = assay: Cytotoxicity of compounds, CellTiter-Glo; assay type: cell-based; conditions: Homo sapiens, ASPC1, Table 5, read-out: Cytotoxicity (EC50) AsPC-1
Excerpt: as §1, §2, §3, §4

BxPC-3 = assay: Cytotoxicity of compounds, CellTiter-Glo; assay type: cell-based; conditions: Homo sapiens, Table 5, read-out: Cytotoxicity (EC50) BxPC-3
Excerpt: as §1, §2, §3, §4

PANC-1 = assay: Cytotoxicity of compounds, CellTiter-Glo; assay type: cell-based; conditions: Homo sapiens, Table 5, read-out: Cytotoxicity (EC50) PANC-1
Excerpt: as §1, §2, §3, §4

[5] = Table 3, Cytotoxicity of Compounds on Jurkat Cells, read-out: EC50
[6] = HCC1954, Table 4, Cytotoxicity of Compounds on HCC-1954 Cells, read-out: EC50
[7] = Table 2, HCC1954, read-out: HCC1954 EC50
[8] = Table 9, Coupling #1, read-out: Jurkat Best-fit EC50
[9] = Table 10, Coupling #2, read-out: Jurkat Best-fit EC50
[10] = HCC1954, Table 9, Coupling #1, read-out: HCC1954 Best-fit EC50
[11] = Table 1, Jurkat cells (HER2−), three nights, read-out: Jurkat cells (HER2−) EC50
[12] = Table 1, HCC1954 cells (HER2+), three nights, read-out: HCC1954 cells (HER2+) EC50
[13] = HCC1954, Table 10, Coupling #2, read-out: HCC1954 Best-fit EC50

| Compound | pEC50 (Jurkat cells [1]; [5]) | pEC50 (NCI-N87) | pEC50 (HCC1954 cells [2]; [6]) | pEC50 (HCC1954 cells [2]; [7]) | pEC50 (Jurkat cells [3]; [8]) | pEC50 (Jurkat cells [3]; [9]) | pEC50 (HCC1954 cells [4]; [10]) | pEC50 (Jurkat cells [1]; [11]) | pEC50 (Jurkat cells [1]; Table 2, read-out: Jurkat EC50) | pEC50 (HCC1954 cells [2]; [12]) | pEC50 (HCC1954 cells [4]; [13]) | pEC50 (MiaPaCa2) | pEC50 (HPAF-II) | pEC50 (AsPC-1) | pEC50 (BxPC-3) | pEC50 (PANC-1) |
| --- | --- | --- | --- | --- | --- | --- | --- | --- | --- | --- | --- | --- | --- | --- | --- | --- |
| CN[C@H](C(=O)N[C@H](C(=O)N(C)[C@H](/C=C(\C)C(=O)NS(=O)(=O)c1ccc(NC(=O)C(F)(F)F)cc1)C(C)C)C(C)(C)C)C(C)(C)c1ccccc1 [Compound 23, (S,E)-2,5-dimethyl-N-(4-(2,2,2-trifluoroacetamido)phenylsulfonyl)-4-((S)—N,3,3-trimethyl-2-((S)-3-methyl-2-(methylamino)-3-phenylbutanamido)butanamido)hex-2-enamide] | 10.51 | 9.40 |  |  |  |  |  |  |  |  |  |  |  |  |  |  |
| CN[C@H](C(=O)N[C@H](C(=O)N(C)[C@H](/C=C(\C)C(=O)NS(=O)(=O)CCCS)C(C)C)C(C)(C)C)C(C)(C)c1ccccc1 [Compound A, (S,E)-N-(3-mercaptopropylsulfonyl)-2,5-dimethyl-4-((S)—N,3,3-trimethyl-2-((S)-3-methyl-2-(methylamino)-3-phenylbutanamido)butanamido)hex-2-enamide] | 8.35 |  | 8.68 | 8.52 | 8.96 | 9.11 | 8.68 | 9.11 | 8.30 |  |  |  |  |  |  |  |
| CN[C@H](C(=O)N[C@H](C(=O)N(C)[C@H](/C=C(\C)C(=O)NS(=O)(=O)CCS)C(C)C)C(C)(C)C)C(C)(C)c1ccccc1 [Compound B, (S,E)-N-(2-mercaptoethylsulfonyl)-2,5-dimethyl-4-((S)—N,3,3-trimethyl-2-((S)-3-methyl-2-(methylamino)-3-phenylbutanamido)butanamido)hex-2-enamide] | 7.23 |  | 7.89 | 7.89 | 8.00 | 7.44 | 8.09 | 7.98 | 7.23 | 8.09 | 8.04 |  |  |  |  |  |
| CN[C@H](C(=O)N[C@H](C(=O)N(C)[C@H](/C=C(\C)C(=O)NS(=O)(=O)c1ccc(CS)cc1)C(C)C)C(C)(C)C)C(C)(C)c1ccccc1 [Compound C, (S,E)-N-(4-(mercaptomethyl)phenylsulfonyl)-2,5-dimethyl-4-((S)—N,3,3-trimethyl-2-((S)-3-methyl-2-(methylamino)-3-phenylbutanamido)butanamido)hex-2-enamide] | 8.72 |  | 8.89 | 8.89 |  | 9.24 |  | 9.24 | 8.72 | 9.17 | 9.17 |  |  |  |  |  |
| CN[C@H](C(=O)N[C@H](C(=O)N(C)[C@H](/C=C(\C)C(=O)NS(=O)(=O)c1ccc(C)cc1)C(C)C)C(C)(C)C)C(C)(C)c1ccccc1 [Compound D, (S,E)-2,5-dimethyl-N-tosyl-4-((S)—N,3,3-trimethyl-2-((S)-3-methyl-2-(methylamino)-3-phenylbutanamido)butanamido)hex-2-enamide] | 10.48 | 9.57 | 10.22 | 10.22 |  |  |  | 10.37 | 10.40 |  |  | 9.87 | 9.75 | 9.77 | 10.18 | 9.09 |
